Experimental data from patent US20070208087A1, “Compounds, compositions and methods for the treatment of inflammatory diseases” (priority 2001, published 2007).
Several values for one entry are separate records, joined by “and”; a condition that tells them apart may be missing. Equal entries are not always repeated. Where two headings read alike, the source gives them in different places.

Assays:
Assay type in all cases: cell-based
Microglial cells [1] = test: Dose response inhibition of NO release from microglia, 0.5-500 μM (Example 9); settings: for μM NO release / μM NO release (No LPS average subtracted): 3 replicates
Procedure: This experiment was designed to determine the dose response inhibition of NO release from microglia by bis- and tris-dihydroxyaryl compounds when stimulated with LPS/IFNγ. Earlier experiments have demonostrated that some bis- and tris-dihydroxyaryl compounds are good inhibitors of NO release from microglia. This experiment is designed to determine a dose response for various effective bis- and tris-dihydroxyaryl compounds. Microglial cells were plated into 96 well plates at 1×10^5 cells/ml. At 48 hours, media was exchanged for media containing 10 ng/ml IFNγ and 10 μg/ml LPS and the following compounds 3, 4, 21, 26 and the positive control L-NAME. The doses tested were: 0.5 μM, 1.0 μM, 5.0 μM, 10 μM, 25 μM, 50 μM, 100 μM, 250 μM, and 500 μM. Nitric oxide release was measured after 48 hours using the Griess reaction.

[2] = test system: EOC 13.31 microglia cells; test: Inhibition of NO release from microglia following 24 hours pretreatment (Example 10); settings: for inhibition at 50 µM: Microglia
How it was run: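 Confluent EOC 13.31 cells pretreated 24 hours with 50 μM compound (from 10 mM DMSO stock), then stimulated with 10 μg/ml LPS plus 10 ng/ml IFNγ without media change. After a further 48 hours, NO release was measured by Griess Reaction.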

Microglial cells [3] = test: Dose response inhibition of NO release from microglia, 0.75-200 μM (Example 8); settings: Microglia, 48 h
Procedure: This experiment was designed to determine dose response inhibition of NO release from microglia by bis- and tris-dihydroxyaryl compounds when stimulated with LPS/IFNγ. […] This experiment is designed to determine a dose response for various bis- and tris-dihydroxyaryl compounds. Microglial cells were plated into 96 well plates at 1×10^5 cells/ml. […] The doses tested were: 0.75 μM, 1.56 μM, 3.125 μM, 6.25 μM, 12.5 μM, 25 μM, 50 μM, 100 μM and 200 μM. Nitric oxide release was measured after 48 hours using the Griess reaction.

[4] = dose 0.5 μM, LPS/IFNγ, 48 hours
[5] = dose 100 μM, LPS/IFNγ, 48 hours
[6] = dose 250 μM, LPS/IFNγ, 48 hours
[7] = dose 500 μM, LPS/IFNγ, 48 hours

O=C(NCc1ccc(O)c(O)c1)C(=Cc1ccc(O)c(O)c1)NC(=O)c1ccc(O)c(O)c1 [Compound 21, α-(3,4-dihydroxybenzamido)-3,4-dihydroxycinnamic acid 3,4-dihydroxybenzyl amide]
inhibition at 0.5 µM (Microglial cells [1]; Microglia, 48 h, dose 0.5 μM, NO release, LPS/IFNγ, 48 hours, read-out: Avg % Inhibition): -0.76% | inhibition at 1 µM (Microglial cells [1]; Microglia, 48 h, dose 1 μM, NO release, LPS/IFNγ, 48 hours, read-out: Avg % Inhibition): 1.01% | inhibition at 5 µM (Microglial cells [1]; Microglia, 48 h, dose 5 μM, NO release, LPS/IFNγ): 0.76% | inhibition at 10 µM (Microglial cells [1]; Microglia, 48 h, dose 10 μM, NO release, LPS/IFNγ): -1.27% | inhibition at 25 µM (Microglial cells [1]; Microglia, 48 h, dose 25 μM, NO release, LPS/IFNγ): 4.82% | inhibition at 50 µM (Microglial cells [1]; Microglia, 48 h, dose 50 μM, NO release, LPS/IFNγ): 13.2% | inhibition at 100 µM (Microglial cells [1]; Microglia, 48 h, dose 100 μM, NO release, LPS/IFNγ, 48 hours, read-out: Avg % Inhibition): 35.2% | inhibition at 100 µM (Microglial cells [1]; Microglia, 48 h, dose 100 μM, individual replicates, NO release, LPS/IFNγ, 48 hours, read-out: % inhibition): 29.4% | inhibition at 250 µM (Microglial cells [1]; Microglia, 48 h, dose 250 μM, NO release, LPS/IFNγ, 48 hours, read-out: Avg % Inhibition): 83.5% | inhibition at 250 µM (Microglial cells [1]; Microglia, 48 h, dose 250 μM, individual replicates, NO release, LPS/IFNγ, 48 hours, read-out: % inhibition): 81% | inhibition at 500 µM (Microglial cells [1]; Microglia, 48 h, dose 500 μM, NO release, LPS/IFNγ, 48 hours, read-out: Avg % Inhibition): 80.3% | inhibition at 500 µM (Microglial cells [1]; Microglia, 48 h, dose 500 μM, individual replicates, NO release, LPS/IFNγ, 48 hours, read-out: % inhibition): 78% | μM NO release (Microglial cells [1]; [4]): 19.722 µM and 20.139 µM and 20.417 µM | μM NO release (No LPS average subtracted) (Microglial cells [1]; [4]): 18.02 µM and 18.44 µM and 18.72 µM | % inhibition (Microglial cells [1]; dose 0.5 μM, individual replicates, NO release, LPS/IFNγ, 48 hours): 1.27% and −1.01% and −2.54% | μM NO release (Microglial cells [1]; dose 1 μM, LPS/IFNγ, 48 hours): 20.694 µM and 19.444 µM and 19.167 µM | μM NO release (No LPS average subtracted) (Microglial cells [1]; dose 1 μM, LPS/IFNγ, 48 hours): 18.99 µM and 17.74 µM and 17.47 µM | % inhibition (Microglial cells [1]; dose 1 μM, individual replicates, NO release, LPS/IFNγ, 48 hours): −4.06% and 2.79% and 4.31% | μM NO release (Microglial cells [1]; dose 5 μM, LPS/IFNγ, 48 hours): 20.278 µM and 20.000 µM and 19.167 µM | μM NO release (No LPS average subtracted) (Microglial cells [1]; dose 5 μM, LPS/IFNγ, 48 hours): 18.58 µM and 18.30 µM and 17.47 µM | % inhibition (Microglial cells [1]; dose 5 μM, individual replicates, NO release, LPS/IFNγ, 48 hours): −1.78% and −0.25% and 4.31% | μM NO release (Microglial cells [1]; dose 10 μM, LPS/IFNγ, 48 hours): 20.556 μM (2×) and 19.444 μM | μM NO release (No LPS average subtracted) (Microglial cells [1]; dose 10 μM, LPS/IFNγ, 48 hours): 18.86 μM (2×) and 17.74 μM | % inhibition (Microglial cells [1]; dose 10 μM, individual replicates, NO release, LPS/IFNγ, 48 hours): −3.30% (2×) and 2.79% | μM NO release (Microglial cells [1]; dose 25 μM, LPS/IFNγ, 48 hours): 19.722 µM and 18.889 µM and 18.611 µM | μM NO release (No LPS average subtracted) (Microglial cells [1]; dose 25 μM, LPS/IFNγ, 48 hours): 18.02 µM and 17.19 µM and 16.91 µM | % inhibition (Microglial cells [1]; dose 25 μM, individual replicates, NO release, LPS/IFNγ, 48 hours): 1.27% and 5.83% and 7.36% | μM NO release (Microglial cells [1]; dose 50 μM, LPS/IFNγ, 48 hours): 18.472 µM and 16.806 µM and 17.361 µM | μM NO release (No LPS average subtracted) (Microglial cells [1]; dose 50 μM, LPS/IFNγ, 48 hours): 16.77 µM and 15.11 µM and 15.66 µM | % inhibition (Microglial cells [1]; dose 50 μM, individual replicates, NO release, LPS/IFNγ, 48 hours): 8.12% and 17.25% and 14.20% | μM NO release (Microglial cells [1]; [5]): 14.583 µM and 12.639 µM and 13.333 µM | μM NO release (No LPS average subtracted) (Microglial cells [1]; [5]): 12.88 µM and 10.94 µM and 11.63 µM | % inhibition (Microglial cells [1]; dose 100 μM, individual replicates, NO release, LPS/IFNγ, 48 hours): 40.07% and 36.27% | μM NO release (Microglial cells [1]; [6]): 5.163 µM and 3.940 µM and 5.027 µM | μM NO release (No LPS average subtracted) (Microglial cells [1]; [6]): 3.46 µM and 2.24 µM and 3.33 µM | % inhibition (Microglial cells [1]; dose 250 μM, individual replicates, NO release, LPS/IFNγ, 48 hours): 87.73% and 81.77% | μM NO release (Microglial cells [1]; [7]): 5.707 µM and 4.348 µM and 5.842 µM | μM NO release (No LPS average subtracted) (Microglial cells [1]; [7]): 4.01 µM and 2.65 µM and 4.14 µM | % inhibition (Microglial cells [1]; dose 500 μM, individual replicates, NO release, LPS/IFNγ, 48 hours): 85.49% and 77.31% | inhibition of NO release, in words (Microglial cells [1]; dose response 0.5-500 μM): most effective at the 250 μM dose | % inhibition ([2]; 50 uM pretreatment 24 hours, then LPS/IFNγ 48 hours, single replicates): 82.29% and 84.17% | inhibition at 50 µM ([2]; 50 uM pretreatment 24 hours, then LPS/IFNγ 48 hours, read-out: Avg % Inhibition): 83.9% | inhibition at 50 µM ([2]; 50 uM pretreatment 24 hours, then LPS/IFNγ 48 hours, single replicates, read-out: % inhibition): 85.2% | inhibition at 50 µM ([2]; 50 μM pretreatment, read-out: inhibition of NO release following pretreatment): > 75% | inhibition at 0.75 µM (Microglial cells [3]; dose 0.75 μM): -15.5% | inhibition at 1.56 µM (Microglial cells [3]; dose 1.56 μM): -6.58% | inhibition at 3.125 µM (Microglial cells [3]; dose 3.125 μM): -6.05%
